Assay results from patent US20050079566A1, “Analytical methods for determination of proteolytic cleavage at specific sites” (priority 2003, published 2005).
No end group written: not given here. *: point of attachment. Biotin = O=C1N[C@H]2[C@H](CS[C@H]2CCCCC(=O)*)N1

Key:
TAL reagent = conditions: Example 4, FIG. 4; peptide at 40 ng/ml, detection with HYB 100-01-POD
Protocol: Under precautions to keep endotoxin contamination to a minimum, a solution of peptide (SEQ ID NO:12) at a concentration of 40 ng/ml in LAL reagent water (LRW) (Cambrex) was added to all wells of a streptavidin Immobilizer 96-well microtiter plate (Nunc) at 100 μl per well. After incubation for 10 minutes at 20-25° C., 100 μl of Control Standard Endotoxin (CSE) solution of 10 EU/ml were added to the first well of the appropriate rows. Serial doubling dilutions were then carried out across the plate leaving the last well as a blank without endotoxin. A 0.5-ml vial of TAL reagent (Zhanjiang A&C Biologicals Ltd) was reconstituted in 0.5 ml of LRW. This was diluted 12-, 15-, 30- and 40-fold in endotoxin-free 50 mM Tris buffer (Cambrex), whereupon 100 μl of a given dilution were added to each well of the corresponding row. The microtiter plate was incubated at 37° C. for 45 minutes. The reaction was stopped by quickly emptying the wells followed by 3×2 minute washes with stop buffer (25% isopropanol v/v in 100 mM glycine-HCl, pH 2.4). The plate was then equilibrated with 2×10-30-second washes with wash buffer. HYB 100-01-POD was diluted to 0.5 μg/ml in dilution buffer and added to each well at 100 μl/well. […] The color reaction was stopped by adding 100 μl of 1 M sulfuric acid to each well and the absorbance measured at 450 nm in a microplate reader, subtracting the absorbance at 620 nm.

antisera = test: Inhibition ELISA: cross-reactivity of antisera with peptides of different length; format: binding, mice; conditions: antisera against octapeptide QESGVSGR
Protocol: Immunization of mice: Separate groups of BCG-vaccinated mice were immunized with six doses (10 μg carrier) of each of these conjugates at 14-day intervals and their sera tested by ELISA in wells coated with the corresponding peptide coupled at molar ratios of 5:1 or 2.5:1 to the opposite carrier at a coating concentration of 10 μg/ml (with respect to carrier) in 0.05 M sodium carbonate buffer, pH 9.6.

HYB 100-01-POD = test: ELISA: effect of peptide length and N-terminus on the signal with TAL reagent and HYB 100-01-POD; format: binding; conditions: Example 6, FIG. 6, activated TAL, HYB 100-01-POD 0.5 μg/ml; for signal: peptide coupled to Immobilizer plate
Protocol: PBS (100 μl) was added to all wells of an Immobilizer 96-well microtiter plate (Nunc). The relevant peptides (SEQ ID NO:11, 13, 14, 15 and 16) were all diluted to 50 μg/ml in PBS and 100 μl of individual solutions added to the first well of the respective row. […] The peptides were allowed to couple to the plate for two hours at 20-25° C. Residual coupling activity was reduced by the addition of 50 μl of 50 mM Tris Buffer, pH 8.0, for 30 minutes. Each well was then washed with 100 μl of PBS. To 0.5 ml of TAL reagent (Zhanjiang A&C Biologicals Ltd) was added 15 EU of Control Standard Endotoxin (CSE) followed by 12 ml of endotoxin-free PBS, and 100 μl of this solution was then added to each well. The plate was then incubated at 37° C. for 45 minutes.

For “Biotin-VQAITDKDEISGRGF [Peptide SEQ ID NO:12]”, the “cleavage by endotoxin-activated TAL” value (TAL reagent) was “site-specific cleavage”.

AQESGVSGR [nonapeptide] was tested, and the cross-reactivity (antisera) was over 100%.

In the case of GVSGR [pentapeptide], the cross-reactivity (antisera; result in words) is reported as “little or no cross-reactivity”.

“Biocytin-VQAITDKDEISGRGF [Peptide SEQ ID NO:16]” was tested, and the signal (HYB 100-01-POD) was “slightly lower signal”.

In the case of DKDEISGR [Peptide SEQ ID NO:14], the signal (HYB 100-01-POD) is reported as “almost totally lost”.

For “Biocytin-VQAITDKDEISGR [Peptide SEQ ID NO:11]”, the “coating concentration at which the maximal (or similar) signal is reached” value (HYB 100-01-POD) was “about 0.05 μg/ml” and the signal (HYB 100-01-POD) was “much stronger signal”.

ITDKDEISGR [Peptide SEQ ID NO:15] was tested, and the “coating concentration at which the maximal (or similar) signal is reached” value (HYB 100-01-POD) was 12.5 to 25 µg/mL.
